From patent US7169769B2, “17α-hydroxy-14β-steroids with hormonal effect” (Akzo Nobel N.V., priority 2001, dated 2007)

Legend:
[1] = reported in Heusser et al Helv Chim Acta Vol 22, 1949; cited from earlier work
[2] = molecular target: T1, human androgen receptor (hAR) (Homo sapiens, UniProt P10275); assay: Transactivative androgen activity in CHO cells transfected with hAR and MMTV-luciferase reporter, compared with 5α-dihydrotestosterone; format: cell-based; parameters: concentration or dose not given beside the values; details: incubation 16 h, 37° C., compared with the activity of 5α-dihydrotestosterone
T1 construct: expressed in transfected cells; host or cells: Chinese hamster ovary cells (CHO)
T1 sequence (P10275 1-920): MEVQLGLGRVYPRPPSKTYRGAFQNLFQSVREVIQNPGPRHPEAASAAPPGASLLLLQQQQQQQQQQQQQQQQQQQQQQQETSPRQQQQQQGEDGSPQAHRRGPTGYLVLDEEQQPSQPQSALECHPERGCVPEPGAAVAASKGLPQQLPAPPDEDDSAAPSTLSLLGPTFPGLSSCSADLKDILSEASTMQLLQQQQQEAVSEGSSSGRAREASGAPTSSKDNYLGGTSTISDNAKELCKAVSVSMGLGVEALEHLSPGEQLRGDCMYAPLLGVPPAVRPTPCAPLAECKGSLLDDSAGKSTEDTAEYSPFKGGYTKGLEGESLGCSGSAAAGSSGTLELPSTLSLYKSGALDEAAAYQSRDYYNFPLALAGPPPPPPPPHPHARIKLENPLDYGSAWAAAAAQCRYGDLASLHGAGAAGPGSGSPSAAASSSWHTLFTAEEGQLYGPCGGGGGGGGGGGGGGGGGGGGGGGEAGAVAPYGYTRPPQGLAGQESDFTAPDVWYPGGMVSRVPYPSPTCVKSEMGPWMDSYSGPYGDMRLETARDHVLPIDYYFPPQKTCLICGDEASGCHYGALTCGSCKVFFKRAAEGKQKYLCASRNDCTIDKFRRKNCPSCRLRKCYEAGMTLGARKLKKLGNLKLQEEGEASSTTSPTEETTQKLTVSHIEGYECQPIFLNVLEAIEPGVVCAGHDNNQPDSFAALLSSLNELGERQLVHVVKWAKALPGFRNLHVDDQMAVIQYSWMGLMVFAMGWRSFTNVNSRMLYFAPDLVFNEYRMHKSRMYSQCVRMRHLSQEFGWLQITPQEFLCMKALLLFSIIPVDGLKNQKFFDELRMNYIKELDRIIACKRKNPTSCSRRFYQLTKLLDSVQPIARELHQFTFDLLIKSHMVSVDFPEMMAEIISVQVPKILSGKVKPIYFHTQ
Experimental: The transactivative androgen activity of the compounds of the invention was measured in Chinese hamster ovary cells (CHO) transfected with the human androgen receptor (hAR), in combination with a mouse mammary tumor virus (MMTV), and luciferase […] gene (incubation time 16 h, temperature 37° C.) and compared with the activity of 5α-dihydrotestosterone [Schoonen, W. G. E. J.; de Ries, R. J. H.; Joosten, J. W. H.; Mathijssen-Mommers, G. J. W.; Kloosterboer, H. J., Analyt. Biochem. 261, 222–224 (1998)].

human hepatocytes = assay: Determination of t1/2 (metabolic stability) after incubation with human hepatocytes; format: in vitro ADME; details: 100 nM compound, 0.5, 1 and 2 h, class relative to 17α-methyltestosterone and testosterone; for t1/2 Bioassay: supernatant analysed by androgenic activity bioassay (example 6)
Experimental: The half-life of a compound as a result of contact with human hepatocytes holds as a reliable indication of metabolic stability. As it is well known that the absorption of this class of steroids is high, this assay provides an in vitro model for oral activity in humans.
Hepatocytes collected from healthy young (25–45 year) male organ donors were cryo preserved in liquid nitrogen and kept there until use. They were thawed at 37° C. in a waterbath, placed immediately on ice, washed twice in one volume of cold (4° C.) incubation medium [William's medium E (without phenol red) with Glutamax I®, gentamicin 50 μg/ml, insulin 1 μM, fetal calf serum 0% (v/v)], counted and the viability checked by Trypan blue exclusion. Cells were incubated as suspensions in 96-wells (non-coated) plates at a nominal density of 3×10^4 cells/well in 300 μl medium at 37° C. with an air/CO2 mixture (95/5).
The hepatocytes were incubated with 100 nM final concentration of the compound to be tested. The incubations were stopped after 0.5, 1 and 2 h by centrifugation at 200 g. The supernatant was collected for liquid chromatography coupled to immediate mass spectroscopic analysis (LC-MS/MS analysis) and for bioassay. For the latter 10 μl was used for determination of the androgenic activity. The androgenicity was determined as described at example 6. The final compound concentration for determination of androgenic activity was 1 nmol/l.
The metabolic stability (t1/2) of the compounds of the invention were classified according to the following scheme: • (+++) metabolic stability>17α-methyltestosterone (MT) • (++) 17α-methyltestosterone>metabolic stability>80% of 17α-methyltestosterone • (+) 80% of 17α-methyltestosterone>metabolic stability>testosterone • (−) metabolic stability<testosterone Results are collected in Table 1.

Row | SMILES | androgenic activity [1] | Androgen activity (%) [2] [%] | t1/2 LC-MS/MS (human hepatocytes; supernatant analysed by LC-MS/MS) | t1/2 Bioassay (human hepatocytes)
1 | C[C@]12CC[C@H]3[C@@H](CCC4=CC(=O)CC[C@@]43C)[C@H]1CC[C@H]2O [17α-hydroxy-14β-testosterone] | no androgenic activity | – | – | –
2 | C[C@@H]1CC2=CC(=O)CC[C@@H]2[C@H]2CC[C@]3(C)[C@H](O)[C@@H](C)C[C@@H]3[C@@H]21 [Example 1, (7α,14β,16β,17α)-17-Hydroxy-7,16-dimethylestr-4-en-3-one] | – | 99.0 | (+ +) | (+ +)
3 | C[C@@H]1CC2=CC(=O)CC[C@@H]2[C@H]2CC[C@]3(C)[C@H](O)[C@H](C)C[C@@H]3[C@@H]21 [Example 2, (7α,14β,16α,17α)-17-Hydroxy-7,16-dimethylestr-4-en-3-one] | – | 38.7 | – | (+ +)
4 | C[C@@H]1CC2=CC(=O)CC[C@@H]2[C@H]2CC[C@@]3(C)[C@H](CC(C)(C)[C@H]3O)[C@@H]21 [Example 3, (7α,14β,17α)-17-hydroxy-7,16,16-trimethylestr-4-en-3-one] | – | 78.5 | – | –
5 | CC[C@H]1C[C@@H]2[C@H]3[C@H](CC[C@]2(C)[C@@H]1O)[C@H]1CCC(=O)C=C1C[C@H]3C [Example 4a, (7α,14β,16β,17α)-16-Ethyl-17-hydroxy-7-methylestr-4-en-3-one] | – | 20.0 | – | –
6 | CC[C@@]1(C)C[C@@H]2[C@H]3[C@H](CC[C@]2(C)[C@@H]1O)[C@H]1CCC(=O)C=C1C[C@H]3C [Example 4b, (7α,14β,16β,17α)-16-Ethyl-17-hydroxy-7,16-dimethylestr-4-en-3-one] | – | 24.0 | – | –
7 | C[C@@H]1CC2=CC(=O)CC[C@@H]2[C@H]2CC[C@]3(C)[C@H](O)CC[C@@H]3[C@@H]21 [Ref. comp. 2, (7α,14β,17α)-17-Hydroxy-7-methylestr-4-en-3-one, reference compound] | – | 60.5 | – | –
